# Target: PARG (389-976) (Homo sapiens (Human), UniProt Q86W56)
# Experiment: PARG enzyme inhibition assay (TR-FRET)
# Assay type: biochemical
# Settings: Table 1, class symbol
# Experimental: PARG Enzyme Inhibition Assay
# PARG in vitro assays were conducted in standard 384-well plates in a total volume of 15 μL.
# Sequence of PARG (389-976) (Q86W56 389-976): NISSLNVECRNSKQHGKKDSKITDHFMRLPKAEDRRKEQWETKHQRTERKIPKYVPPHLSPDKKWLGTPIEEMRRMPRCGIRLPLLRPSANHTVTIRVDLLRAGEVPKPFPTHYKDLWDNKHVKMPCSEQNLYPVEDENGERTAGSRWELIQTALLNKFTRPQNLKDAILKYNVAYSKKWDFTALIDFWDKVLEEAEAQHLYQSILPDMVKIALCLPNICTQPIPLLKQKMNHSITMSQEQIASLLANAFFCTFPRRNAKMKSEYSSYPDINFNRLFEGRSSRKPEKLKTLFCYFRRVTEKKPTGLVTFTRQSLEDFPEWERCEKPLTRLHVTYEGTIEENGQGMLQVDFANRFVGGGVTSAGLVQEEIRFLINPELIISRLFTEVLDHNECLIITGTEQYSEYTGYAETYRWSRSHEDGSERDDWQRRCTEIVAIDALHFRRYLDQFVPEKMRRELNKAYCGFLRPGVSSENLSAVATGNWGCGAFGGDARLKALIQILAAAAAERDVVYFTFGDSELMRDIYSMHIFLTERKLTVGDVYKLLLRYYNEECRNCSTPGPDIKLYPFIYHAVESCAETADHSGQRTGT
row,Structure (SMILES),IC50
1,Cc1nc(C)c(Cn2cc(-c3nnc(C(F)F)s3)c3cc(S(=O)(=O)NC4(C)CC4)ccc32)s1 [Compound 8],< 0.1 µM
2,Cc1nc(C)c(Cn2nc(-c3nnc(C(F)F)s3)c3nc(S(=O)(=O)NC4(C)CC4)ccc32)s1 [Compound 11],0.1 to 1 µM
3,Cc1nc(C)c(Cn2nc(-c3nnc(C(F)F)s3)c3cc(S(=O)(=O)NC4(C)CC4)cc(C(F)(F)F)c32)s1 [Compound 10],0.1 to 1 µM
4,Cc1nc(C)c(Cn2nc(-c3nnc(C(F)F)s3)c3cc(S(=O)(=O)NC4(C)CC4)ccc32)s1 [Compound 1],< 0.1 µM
5,O=S(=O)(NC1(CF)CC1)c1ccc2c(c1)c(-c1nnc(C(F)F)s1)nn2CC1CC1 [Compound 12],< 0.1 µM
6,Cc1nc(C)c(Cn2nc(-c3nnc(C(F)F)s3)c3cc(S(=O)(=O)NC4(C)CC4)cnc32)s1 [Compound 9],< 0.1 µM

# Same assay, conditions: Table 2, class symbol
row,Structure (SMILES),IC50
1,Cc1nc(C)c(Cn2nc(-c3nnc(C(F)F)s3)c3cc(S(=O)(=O)NC4(C)CC4)c(F)cc32)s1 [Compound 13],< 0.1 µM
2,CC(C)CN1CCN(c2cc(S(=O)(=O)NC3(C#N)CC3)cc3c(-c4nnc(C(F)F)s4)nn(C)c23)CC1 [Compound 49],< 0.1 µM
3,N#CC1(NS(=O)(=O)c2ccc3c(c2)c(-c2nnc(C(F)F)s2)nn3Cc2ccc(F)cc2)CC1 [Compound 57],< 0.1 µM
4,CC(C)C(=O)N1CCN(c2cc(S(=O)(=O)NC3(C#N)CC3)cc3c(-c4cnn(C)c4)nn(C)c23)CC1 [Compound 61],< 0.1 µM
5,C[C@@H]1CN(c2cc(S(=O)(=O)NC3(C#N)CC3)cc3c(-c4nnc(C(F)F)s4)nn(C)c23)CCO1 [Compound 37],< 0.1 µM
6,Cc1nnc(-c2nn(C)c3c(N4CCN(C(=O)C(C)C)CC4)cc(S(=O)(=O)NC4(C#N)CC4)cc23)s1 [Compound 56],< 0.1 µM
7,Cn1nc(-c2nnc(C(F)F)s2)c2cc(S(=O)(=O)NC3(C#N)CC3)cc(N3CCN(c4cccnn4)CC3)c21 [Compound 41],< 0.1 µM
8,CC(C)C(=O)N1CCN(c2cc(S(=O)(=O)NC3(C)CC3)cc3c(-c4nnc(C(F)F)s4)nn(C(C)C)c23)CC1 [Compound 16],< 0.1 µM
9,Cn1nc(-c2nnc(C(F)F)s2)c2cc(S(=O)(=O)NC3(C#N)CC3)cc(N3CCN(C(=O)C(F)(F)F)CC3)c21 [Compound 47],< 0.1 µM
10,CC(C)C(=O)N1CC2CCC(C1)N2c1cc(S(=O)(=O)NC2(C)CC2)cc2c(-c3nnc(C(F)F)s3)nn(C)c12 [Compound 62],< 0.1 µM
11,CC(C)C(=O)N1CC=C(c2cc(S(=O)(=O)NC3(C#N)CC3)cc3c(-c4nnc(C(F)F)s4)nn(C)c23)CC1 [Compound 40],< 0.1 µM
12,CC(C)S(=O)(=O)N1CCN(c2cc(S(=O)(=O)NC3(C#N)CC3)cc3c(-c4nnc(C(F)F)s4)nn(C)c23)CC1 [Compound 48],< 0.1 µM
13,Cn1nc(-c2nnc(C(F)F)s2)c2cc(S(=O)(=O)NC3(C#N)CC3)cc(-c3ccccc3)c21 [Compound 28],< 0.1 µM
14,C[C@H]1CN(c2cc(S(=O)(=O)NC3(C#N)CC3)cc3c(-c4nnc(C(F)F)s4)nn(C)c23)CCO1 [Compound 35],< 0.1 µM
15,CC(C)C(=O)N1CCN(c2cc(S(=O)(=O)NC3(C#N)CC3)cc3c(-c4nnc(C(F)F)s4)nn(CC(F)(F)F)c23)CC1 [Compound 30],< 0.1 µM
16,Cn1nc(-c2nnc(C(F)F)s2)c2cc(S(=O)(=O)NC3(C)CC3)cc(N3CCOCC3)c21 [Compound 25],< 0.1 µM
17,Cn1nc(-c2nnc(C(F)F)s2)c2cc(S(=O)(=O)NC3(C#N)CC3)cc(N3CCN(C(=O)c4ccccn4)CC3)c21 [Compound 43],< 0.1 µM
18,Cn1nc(-c2nnc(C(F)F)s2)c2cc(S(=O)(=O)NC3(C#N)CC3)cc(N3CCN(S(C)(=O)=O)CC3)c21 [Compound 34],< 0.1 µM
19,CC1(NS(=O)(=O)c2ccc3c(c2)c(-c2nnc(C(F)F)s2)nn3Cc2ccc3cn[nH]c3c2)CC1 [Compound 58],< 0.1 µM
20,CC1(NS(=O)(=O)c2ccc3c(c2)c(-c2nnc(C(F)F)s2)nn3Cc2ccc3cncn3c2)CC1 [Compound 59],< 0.1 µM
21,Cn1nc(-c2nnc(C(F)F)s2)c2cc(S(=O)(=O)NC3(C)CC3)cc(N3CCn4cncc4C3)c21 [Compound 20],< 0.1 µM

# Same assay, conditions: Table 3, class symbol
row,Structure (SMILES),IC50
1,Cn1nc(-c2nnc(C(F)F)s2)c2cc(S(=O)(=O)NC3(C#N)CC3)cc(-c3ccc(C(=O)N4CCCC4)cc3)c21 [Compound 135],< 0.1 µM
2,Cn1nc(-c2nnc(C(F)F)s2)c2cc(S(=O)(=O)NC3(C#N)CC3)cc(C3CC4CCC(C3)N4)c21 (stereo not drawn) [Compound 121],< 0.1 µM
3,CC(C)(O)C1CCN(c2cc(S(=O)(=O)NC3(C#N)CC3)cc3c(-c4nnc(C(F)F)s4)nn(CC(F)(F)F)c23)CC1 [Compound 105],< 0.1 µM
4,CC(C)C(=O)N1CCC(c2cc(S(=O)(=O)NC3(C#N)CC3)cc3c(-c4nnc(C(F)F)s4)nn(C)c23)CC1 [Compound 116],< 0.1 µM
5,CC(C)C(=O)N1[C@H](C)CN(c2cc(S(=O)(=O)NC3(C#N)CC3)cc3c(-c4nnc(C(F)F)s4)nn(CC(F)(F)F)c23)C[C@@H]1C [Compound 104],< 0.1 µM
6,CC(C)C(=O)N1C2CCC1CN(c1cc(S(=O)(=O)NC3(C#N)CC3)cc3c(-c4nnc(C(F)F)s4)nn(CC(F)(F)F)c13)C2 [Compound 95],< 0.1 µM
7,Cn1nc(-c2nnc(C(F)F)s2)c2cc(S(=O)(=O)NC3(C#N)CC3)cc(N3CC4CCC(C3)C4C(=O)N3CCCC3)c21 (stereo not drawn) [Compound 113],< 0.1 µM
8,CC(C)C(=O)N1C2C=C(c3cc(S(=O)(=O)NC4(C#N)CC4)cc4c(-c5nnc(C(F)F)s5)nn(C)c34)CC1CC2 (stereo not drawn) [Compound 120],< 0.1 µM
9,Cn1nc(-c2nnc(C(F)F)s2)c2cc(S(=O)(=O)NC3(C#N)CC3)cc(C3CCC(C(=O)N4CCCC4)CC3)c21 (stereo not drawn) [Compound 140],< 0.1 µM
10,C[C@H](N)C(=O)N1C2C=C(c3cc(S(=O)(=O)NC4(C#N)CC4)cc4c(-c5nnc(C(F)F)s5)nn(C)c34)CC1CC2 (stereo partly drawn) [Compound 79],< 0.1 µM
11,CCn1nc(-c2nnc(C(F)F)s2)c2cc(S(=O)(=O)NC3(C#N)CC3)cc(N3CCN(C(=O)C(C)C)[C@H](C)C3)c21 [Compound 103],< 0.1 µM
12,CCn1nc(-c2nnc(C(F)F)s2)c2cc(S(=O)(=O)NC3(C)CC3)cc(N3CCN(C(=O)C(C)C)[C@@H](C)C3)c21 [Compound 92],< 0.1 µM
13,CC(C)C(=O)N1CCN(c2cc(S(=O)(=O)NC(C)(C)C)cc3c(-c4nnc(C(F)F)s4)nn(C)c23)CC1 [Compound 131],< 0.1 µM
14,CCn1nc(-c2nnc(C(F)F)s2)c2cc(S(=O)(=O)NC3(C)CC3)c(F)c(N3CCN(C(=O)C(C)C)CC3)c21 [Compound 67],< 0.1 µM
15,Cn1nc(-c2nnc(C(F)F)s2)c2cc(S(=O)(=O)NC3(C#N)CC3)cc(N3CC4CCC(C3)C4C(C)(C)O)c21 (stereo not drawn) [Compound 130],0.1 to 1 µM
16,CC(C)S(=O)(=O)N1CC=C(c2cc(S(=O)(=O)NC3(C#N)CC3)cc3c(-c4nnc(C(F)F)s4)nn(C)c23)CC1 [Compound 141],< 0.1 µM
17,CC(C)C(=O)N1CCN(c2cc(S(=O)(=O)NC3(C#N)CC3)cc3c(-c4nnc(C(F)F)s4)nn(C)c23)C[C@H]1C [Compound 69],< 0.1 µM
18,COc1ccc(CN(C2(C#N)CC2)S(=O)(=O)c2cc(N3CC4CCC(C3)N4C(=O)C(C)C)c3c(c2)c(-c2nnc(C(F)F)s2)nn3CCO)cc1 [Compound 96],0.1 to 1 µM

row,Structure (SMILES),IC50
1,C[C@H](O)C(=O)N1C2CCC1CN(c1cc(S(=O)(=O)NC3(C#N)CC3)cc3c(-c4nnc(C(F)F)s4)nn(C)c13)C2 [Compound 72],< 0.1 µM
2,C[C@@H]1CN(c2cc(S(=O)(=O)NC3(C#N)CC3)cc3c(-c4nnc(C(F)F)s4)nn(C)c23)CCN1C(=O)N(C)C [Compound 70],< 0.1 µM
3,Cn1nc(-c2nnc(C(F)F)s2)c2cc(S(=O)(=O)NC3(C#N)CC3)cc(N3CCC(C(=O)N4CCCC4)CC3)c21 [Compound 89],< 0.1 µM
4,CC(C)C(=O)N1C2CCC1CN(c1cc(S(=O)(=O)NC3(C#N)CC3)cc3c(-c4nnc(C(F)F)s4)cn(C)c13)C2 [Compound 123],< 0.1 µM
5,N#CC1(NS(=O)(=O)c2cc(C3=CC4CCC(C3)N4C(=O)C3CCCC3)c3c(c2)c(-c2nnc(C(F)F)s2)nn3CC(F)(F)F)CC1 (stereo not drawn) [Compound 119],< 0.1 µM
6,N#CC1(NS(=O)(=O)c2cc(N3CC4(CCOCC4)C3)c3c(c2)c(-c2nnc(C(F)F)s2)nn3CC(F)(F)F)CC1 [Compound 133],< 0.1 µM
7,CC(C)C(=O)N1C2CCCC1CN(c1cc(S(=O)(=O)NC3(C#N)CC3)cc3c(-c4nnc(C(F)F)s4)nn(C)c13)C2 [Compound 84],< 0.1 µM
8,CCn1nc(-c2nnc(C(F)F)s2)c2cc(S(=O)(=O)NC3(C#N)CC3)cc(N3C4CCC3CN(C(=O)C(C)C)C4)c21 [Compound 94],< 0.1 µM
9,C[C@H](N)C(=O)N1C2CCC1CC(c1cc(S(=O)(=O)NC3(C#N)CC3)cc3c(-c4nnc(C(F)F)s4)nn(C)c13)C2 (stereo partly drawn) [Compound 128],< 0.1 µM
10,CC(C)C(=O)N1CCN2c3cc(S(=O)(=O)NC4(C#N)CC4)cc4c(-c5nnc(C(F)F)s5)nn(c34)CC2C1 (stereo not drawn) [Compound 117],< 0.1 µM
11,CC(C)C(=O)N1C2COCC1CN(c1cc(S(=O)(=O)NC3(C#N)CC3)cc3c(-c4nnc(C(F)F)s4)nn(C)c13)C2 [Compound 86],< 0.1 µM
12,Cn1nc(-c2nnc(C(F)F)s2)c2cc(S(=O)(=O)NC3(C#N)CC3)cc(N3CCC(N4CCCC4)CC3)c21 [Compound 134],< 0.1 µM
13,CC(C)C(=O)N1C2CCC1CN(c1cc(S(=O)(=O)NC3(C#N)CC3)cc3c(-c4nnc(C(F)F)s4)nn(CC#N)c13)C2 [Compound 122],< 0.1 µM
14,CC(C)C(=O)N1CC2(C1)CN(c1cc(S(=O)(=O)NC3(C#N)CC3)cc3c(-c4nnc(C(F)F)s4)nn(C)c13)C2 [Compound 77],< 0.1 µM
15,CCn1nc(-c2nnc(C(F)F)s2)c2c(F)c(S(=O)(=O)NC3(C)CC3)cc(N3CCN(C(=O)C(C)C)CC3)c21 [Compound 66],< 0.1 µM
16,Cn1nc(-c2nnc(C(F)F)s2)c2cc(S(=O)(=O)NC3(C#N)CC3)cc(N3CCN(C(=O)C4CCC4)CC3)c21 [Compound 144],< 0.1 µM
17,CC(C)C(=O)N1CC=C(c2cc(S(=O)(=O)NC3(C#N)CC3)cc3c(-c4nnc(C(F)F)s4)nn(CC(F)(F)F)c23)CC1 [Compound 107],< 0.1 µM
18,Cn1nc(-c2nnc(C(F)F)s2)c2cc(S(=O)(=O)NC3(C#N)CC3)cc(N3CC4(CCOCC4)C3)c21 [Compound 106],< 0.1 µM
